Earlier results as cited in patent US8637688B2, “Topical dosage form comprising tri-substituted glycerol compounds” (priority 2006, dated 2014).

Columns and labels:
[1] = test system: cutaneous metastases from breast cancer; details: 6% solution, topical, average dose rate 0.3 mg/cm^2 skin area
[2] = 6% solution, topical

CCCCCCCCCCCCCCCCOP(=O)([O-])OCC[N+](C)(C)C [miltefosine, hexadecylphosphocholine]
patients treated who showed a beneficial response to the medicament [1]: about one third | skin irritations (redness, itching, cauterization or the like) shortly upon administration [2]: significant skin irritations
